Measured values: paper PMC12766721, “Regio- and Stereoselective Halogenation by an Iron(II)- and 2‑Oxoglutarate-Dependent Halogenase in the Biosynthesis of Halogenated Nucleosides” (Journal of the American Chemical Society, 2025)

Target: AdeV
Assay: stopped-flow absorption kinetics (substrate-dependent formation of the […] nm chloro-ferryl feature), with freeze-quench Mössbauer and LC–MS turnover of purified enzyme
Type: biochemical, Actinomadura sp. ATCC 39365

Kd: ~28 mM
SMILES: Nc1ncnc2c1ncn2[C@H]1C[C@H](O)[C@@H](COP(=O)(O)O)O1 [compound 1, 2′-deoxyadenosine monophosphate]
